We go through two compounds from publication PMC9144282 (Viruses, 2022).

Read-outs that look alike come from different tables or passages of the source. Marks after values point to notes of the source that are not given here.

Series [1] relates to human cell lines (HEp-2, L41, HT-29). The series is described as follows: MTT cytotoxicity test, three human cell lines taken together. The class given is cell-based. In general terms: Formazan colour is commonly taken as a measure of viable cells.
A further series concerns MS2 RNA. The series can be described thus: RNase activity by RT^2-PCR, isolated MS2 RNA. The class given is biochemical, bacteriophage MS2. The note with it: 0.1 mg/mL, 37 °C.
Another series deals with MS2 Phage. The series is described as follows: RNase activity by RT^2-PCR, whole MS2 phage. The series is classed as biochemical, bacteriophage MS2. The note with it: 0.1 mg/mL.
The next series relates to SARS-CoV-2 RNA. The class given is biochemical. Conditions: 0.1 mg/mL, 37 °C.
In a further series the test system is IFNγ. The series is described as follows: xMAP inflammation biomarkers in HEp-2 cells. The series is classed as cell-based, human. Conditions: 2 days posttreatment, concentrations below CC50.
The test system of another series is TNFα. The series is described as follows: xMAP inflammation biomarkers in HEp-2 cells. The class given is cell-based, human. The note with it: 2 days posttreatment, concentrations below CC50.
In the next series the test system is IL-1β. The series is described as follows: xMAP inflammation biomarkers in HEp-2 cells. The series is classed as cell-based, human. The note with it: two days after addition.
The subject of a further series is IL-12(p70). The series can be described thus: xMAP inflammation biomarkers in HEp-2 cells. The series is classed as cell-based, human. The note with it: 2 days posttreatment, concentrations below CC50.
The next series concerns IL-2. The series can be described thus: xMAP inflammation biomarkers in HEp-2 cells. The series is classed as cell-based, human. The note with it: 2 days posttreatment, concentrations below CC50.
The subject of another series is IL-4. The series is described as follows: xMAP inflammation biomarkers in HEp-2 cells. The note with it: 2 days posttreatment, concentrations below CC50. The class given is cell-based, human.
Another series has as its system IL-5. The series can be described thus: xMAP inflammation biomarkers in HEp-2 cells. The series is classed as cell-based, human. The note with it: 2 days posttreatment, concentrations below CC50.
Another series relates to IL-6. The series can be described thus: xMAP inflammation biomarkers in HEp-2 cells. The series is classed as cell-based, human. Conditions: 2 days posttreatment, concentrations below CC50.
The subject of a further series is IL-7. The series can be described thus: xMAP inflammation biomarkers in HEp-2 cells. The series is classed as cell-based, human. Conditions: 2 days posttreatment, concentrations below CC50.
The next series concerns IL-8. The series can be described thus: xMAP inflammation biomarkers in HEp-2 cells. The series is classed as cell-based, human. The note with it: 2 days posttreatment, concentrations below CC50.
The next series relates to IL-10. The series can be described thus: xMAP inflammation biomarkers in HEp-2 cells. The class given is cell-based, human. Conditions: 2 days posttreatment, concentrations below CC50.
In a further series the test system is IL-13. The series can be described thus: xMAP inflammation biomarkers in HEp-2 cells. The series is classed as cell-based, human. Conditions: 2 days posttreatment, concentrations below CC50.
The test system of another series is IL-17A. The series can be described thus: xMAP inflammation biomarkers in HEp-2 cells. Conditions: 2 days posttreatment, concentrations below CC50. The series is classed as cell-based, human.
For the next series, the system named is G-CSF. The series is described as follows: xMAP inflammation biomarkers in HEp-2 cells. The note with it: 2 days posttreatment, concentrations below CC50. The series is classed as cell-based, human.
Another series relates to GM-CSF. The series can be described thus: xMAP inflammation biomarkers in HEp-2 cells. The class given is cell-based, human. Conditions: 2 days posttreatment, concentrations below CC50.
For a further series, the system named is MCP-1 (MCAP). The series can be described thus: xMAP inflammation biomarkers in HEp-2 cells. The series is classed as cell-based, human. Conditions: 2 days posttreatment, concentrations below CC50.
The subject of another series is MIP-1β. The series is described as follows: xMAP inflammation biomarkers in HEp-2 cells. The class given is cell-based, human. Conditions: 2 days posttreatment, concentrations below CC50.
The subject of series [2] is L41.
Series [3] has as its system HT-29.
The target of series [4] is SARS-CoV-2 recombinant antigen N (Severe acute respiratory syndrome coronavirus 2, UniProt P0DTC9).
Series [5] addresses SARS-CoV-2 recombinant antigen S2 (Severe acute respiratory syndrome coronavirus 2, UniProt P0DTC2).
The subject of series [6] is L41. The series is described as follows: MTT cytotoxicity test, L41 cells. Conditions: concentration of the studied substance.
The subject of another series is HEp-2. The series is described as follows: MTT cytotoxicity test, HEp-2 cells. The note with it: HEp-2, MTT; concentration of the studied substance.
In series [7] the test system is HT-29. The series is described as follows: MTT cytotoxicity test, HT-29 cells. Conditions: HT-29, MTT; concentration of the studied substance.
Series [8] concerns SARS-CoV-2 RNA from COVID-19 Patient Blood. The class given is biochemical.
Series [9] in a line: Stability on storage / in media. The class given is physicochemical. The note with it: storage in water solution.
Series [10] in a line: Height of nanomaterials by AFM. The series is classed as physicochemical.
The test system of series [11] is influenza A viral and cellular RNA. On the set-up: method as in earlier work. The note with it: 2 mM, 1 h at 37 °C; cited from earlier work.
Details of series [12]: method as in earlier work. Conditions: cited from earlier work.

`O=[N+]([O-])[O-].[Ag+]` [AgNO3]: in series [1] (silver ions at 10 μg/mL), the “Toxicity for three human cell lines” value is recorded as “not toxic”. Also, the “Time for complete cleavage of isolated MS2 RNA” value in the series with MS2 RNA turned out to be 15 min. For the same compound, the “Incubation required for complete damage of RNA inside the MS2 phage” value in the series with MS2 Phage (37 °C (data not shown)) is recorded as “at least 1 h”. In the series with SARS-CoV-2 RNA, the “Incubation necessary for exhaustive hydrolysis of SARS-CoV-2 RNA” value was 1 h. Also, the “ΔCt = Ct (sample) − Ct (control), SARS-CoV-2 RNA” value with SARS-CoV-2 RNA (RT^2-PCR) turned out to be 0.9. Besides, the “IFNγ, ratio of MFI to control intact cells” value in the series with IFNγ is 1.03. The “TNFα, ratio of MFI to control intact cells” value in the series on TNFα is reported as 1.15 ↑. Further, in the series with IL-1β, the IL1β production result was “up to 0.08 pg/mL”. Moreover, the “IL-12(p70), ratio of MFI to control intact cells” value in the series on IL-12(p70) was found to be 0.70. In the series on IL-2, the “IL-2, ratio of MFI to control intact cells” value came out at 0.74. For the same compound, the “IL-4, ratio of MFI to control intact cells” value in the series on IL-4 was 0.84. Moreover, in the series on IL-5, the “IL-5, ratio of MFI to control intact cells” value stood at 0.88. Also, the “IL-6, ratio of MFI to control intact cells” value with IL-6 is 0.85. Also, the “IL-7, ratio of MFI to control intact cells” value with IL-7 came out at 0.70. Also, the “IL-8, ratio of MFI to control intact cells” value in the series on IL-8 is recorded as 3.71 ↑. In the series on IL-10, the “IL-10, ratio of MFI to control intact cells” value was determined as 0.78. Also, in the series with IL-13, the “IL-13, ratio of MFI to control intact cells” value was found to be 0.81. In the series on IL-17A, the “IL-17A, ratio of MFI to control intact cells” value was 0.97. Besides, the “G-CSF, ratio of MFI to control intact cells” value in the series on G-CSF is 1.12 ↑. The “GM-CSF, ratio of MFI to control intact cells” value with GM-CSF is 0.92. Besides, the “MCP-1 (MCAP), ratio of MFI to control intact cells” value in the series with MCP-1 (MCAP) is 1.19 ↑. Besides, the “MIP-1β, ratio of MFI to control intact cells” value in the series with MIP-1β is given as 1.17 ↑. The “CC50, corresponding concentration of Ag+” value with L41 [2] and with HT-29 [3] was 100 (63.49 Ag+) μg/mL each time. Further, the “Effect on binding of antigen N with polyclonal antibodies (ELISA)” value in series [4] was “inhibit binding”. Further, the “Lowest concentration for significant reproducible binding suppression” value in series [4] came out at 100 µg/mL; in [5] (ELISA, antigen S2 with human polyclonal antibodies), 100 µg/mL. Moreover, in series [5], the “Effect on binding of antigen S2 with polyclonal antibodies (ELISA)” value is listed as “inhibit binding”. For the same compound, the “Cytotoxic concentration CC50” value is reported as 100 (63.49 Ag+) μg/mL in the series with L41 [6], 50 (31.75 Ag+) * μg/mL in the series with HEp-2 and 100 (63.49 Ag+) μg/mL with HT-29 [7].

For orientation: CC50 means the concentration that lowers cell viability or growth by half. Li^+[Ag^+2Cys2^−(OH^−)2(NH3)2] [Ag-2S]: the CC50 in [1] (over the human cell lines (Table 1)) is 5.3 to 21.2 µg/mL; in [1] (range over the human cell lines, read-out: CC50), 10 to 40 µM. In addition, in the series with MS2 RNA, the “Time for complete cleavage of isolated MS2 RNA” value is reported as 15 min. Also, the “ΔCt = Ct (sample) − Ct (control), MS2 Phage” value with MS2 Phage (37 °C, RT^2-PCR) came to 7.5. For the same compound, in the series with SARS-CoV-2 RNA, the “Incubation necessary for exhaustive hydrolysis of SARS-CoV-2 RNA” value is 1 h. The “ΔCt = Ct (sample) − Ct (control), SARS-CoV-2 RNA from COVID-19 Patient Blood” value in series [8] is 1.6. Also, the “Stability of structure and physico-chemical properties during storage” value in [9] is given as “up to 10 years”. The “Particle height range (AFM)” value in series [10] (height distribution histograms, includes protein shell for Ag NCs-IgG) is given as 1–2 nm. Besides, the “Most probable height (AFM)” value in series [10] (height histograms) is given as ~ 1 nm. Also, the “Effect on binding of antigen N with polyclonal antibodies (ELISA)” value in series [4] is “did not significantly differ from the positive controls”. Moreover, in series [11], the “Cleavage of total RNA” value is recorded as “Complete cleavage”. Also, in series [12], the “Damage of cellular DNA and viral antigens after incubation” value is “neither cellular DNA nor viral antigens were damaged”. In addition, the “Cytotoxic concentration CC50” value in the series with L41 [6] was 21.2 (4.32 Ag+) μg/mL; with HT-29 [7], 15.9 (3.24 Ag+) μg/mL.
